In patent US10597388B2, “Pyridazinone herbicides” (FMC CORPORATION, priority 2014, dated 2020):

Assays:
Experiment in all cases: Test E greenhouse herbicide test, pre- and postemergence
Type in all cases: in vivo
[1] = tested on: crabgrass, Brazilian (Brazilian crabgrass, Digitaria horizontalis)
Excerpt: (§1) Seeds of plant species selected from corn (Zea mays), soybean (Glycine max), velvetleaf (Abutilon theophrasti), lambsquarters (Chenopodium album), wild poinsettia (Euphorbia heterophylla), pigweed, palmer (palmer pigweed, Amaranthus palmeri), waterhemp (common waterhemp, Amaranthus rudis), surinam grass (Brachiaria decumbens), crabgrass, large (large crabgrass, Digitaria sanguinalis), crabgrass, Brazilian (Brazilian crabgrass, Digitaria horizontalis), panicum, fall (fall panicum, Panicum dichotomiflorum), foxtail, giant (giant foxtail, Setaria faberii), foxtail, green (green foxtail, Setaria viridis), goosegrass (Eleusine indica), johnsongrass (Sorghum halepense), ragweed (common ragweed, Ambrosia elatior), barnyardgrass (Echinochloa crus-galli), sandbur (southem sandbur, Cenchrus echinatus), arrowleaf sida (Sida rhombifolia), Italian ryegrass (Lolium multiflorum), dayflower (Virginia (VA) dayflower, Commelina virginica), field bindweed (Convolvulus arvensis), momingglory (Ipomoea coccinea), nightshade (eastern black nightshade, Solanum ptycanthum), kochia (Kochia scoparia), nutsedge, yellow (yellow nutsedge, Cyperus esculentus), horseweed (Conyza canadensis), and beggarticks (hairy beggarticks, Bidens pilosa), were planted into a silt loam soil and treated preemergence with test chemicals formulated in a non-phytotoxic solvent mixture which included a surfactant.
(§2) At the same time, plants from these crop and weed species and also waterhemp_RES1, (ALS & Triazine resistant common waterhemp, Amaranthus rudis), and waterhemp_RES2, (ALS & HPPD resistant common waterhemp, Amaranthus rudis) were planted in pots containing Redi-Earth® planting medium (Scotts Company, 14111 Scottslawn Road, Marysville, Ohio 43041) comprising spaghnum peat moss, vermiculite, wetting agent and starter nutrients were treated with postemergence applications of test chemicals formulated in the same manner. Plants ranged in height from 2 to 18 cm for postemergence treatments (1- to 4-leaf stage). Treated plants and controls were maintained in a greenhouse for 14 to 21 d, after which time all species were compared to controls and visually evaluated. Plant response ratings, summarized in Table E, are based on a scale of 0 to 100 where 0 is no effect and 100 is complete control. A dash (-) response means no test result.

[2] = tested on: ragweed (common ragweed, Ambrosia elatior)
Excerpt: as §1, §2

[3] = tested on: crabgrass, large (large crabgrass, Digitaria sanguinalis); details: Preemergence
Excerpt: as §1, §2

[4] = tested on: field bindweed (Convolvulus arvensis)
Excerpt: as §1, §2

[5] = tested on: barnyardgrass (Echinochloa crus-galli)
Excerpt: as §1, §2

soybean (Glycine max) = tested on: soybean (Glycine max)
Excerpt: as §1, §2

[6] = tested on: pigweed, palmer (palmer pigweed, Amaranthus palmeri)
Excerpt: as §1, §2

[7] = tested on: momingglory (Ipomoea coccinea); details: Preemergence
Excerpt: as §1, §2

[8] = tested on: goosegrass (Eleusine indica); details: Preemergence
Excerpt: as §1, §2

[9] = tested on: foxtail, giant (giant foxtail, Setaria faberii); details: Preemergence
Excerpt: as §1, §2

[10] = tested on: arrowleaf sida (Sida rhombifolia)
Excerpt: as §1, §2

[11] = tested on: johnsongrass (Sorghum halepense); details: Preemergence
Excerpt: as §1, §2

[12] = tested on: panicum, fall (fall panicum, Panicum dichotomiflorum)
Excerpt: as §1, §2

[13] = tested on: surinam grass (Brachiaria decumbens); details: Preemergence
Excerpt: as §1, §2

[14] = tested on: horseweed (Conyza canadensis)
Excerpt: as §1, §2

[15] = 62 g ai/ha, Postemergence, scale 0 to 100 (0 no effect, 100 complete control)
[16] = 62 g ai/ha, Preemergence, scale 0 to 100 (0 no effect, 100 complete control)
[17] = 125 g ai/ha, Postemergence, scale 0 to 100 (0 no effect, 100 complete control)
[18] = 250 g ai/ha, Postemergence, scale 0 to 100 (0 no effect, 100 complete control)
[19] = Postemergence, 31 g ai/ha, visual, scale 0 no effect to 100 complete control
[20] = Preemergence, 31 g ai/ha, scale 0 to 100, 0 no effect, 100 complete control
[21] = Preemergence, 125 g ai/ha, visual, scale 0 no effect to 100 complete control
[22] = Preemergence, 250 g ai/ha, visual, scale 0 no effect to 100 complete control
[23] = 125 g ai/ha, Preemergence, scale 0 to 100 (0 no effect, 100 complete control)
[24] = 62 g ai/ha, scale 0 to 100 (0 no effect, 100 complete control)
[25] = 31 g ai/ha, scale 0 to 100, 0 no effect, 100 complete control
[26] = 125 g ai/ha, visual, scale 0 no effect to 100 complete control
[27] = 250 g ai/ha, visual, scale 0 no effect to 100 complete control
[28] = 125 g ai/ha, scale 0 to 100 (0 no effect, 100 complete control)
[29] = Postemergence, 16 g ai/ha, visual, scale 0 no effect to 100 complete control

Cn1nc(Br)c(O)c(-c2cccc3ccccc23)c1=O [Compound 20]
Plant response rating, Crabgrass, Brazil [1, 15]: 20 | Plant response rating, Crabgrass, Brazil [1, 16]: 60 | Plant response rating, Crabgrass, Brazil [1, 17]: 20 | Plant response rating, Crabgrass, Brazil [1, 18]: 50 | Plant response rating, Crabgrass, Brazil [1, 19]: 10 | Plant response rating, Crabgrass, Brazil [1, 20]: 40 | Plant response rating, Crabgrass, Brazil [1, 21]: 70 | Plant response rating, Crabgrass, Brazil [1, 22]: 90 | Plant response rating, Ragweed [2, 15]: 75 | Plant response rating, Ragweed [2, 16]: 65 | Plant response rating, Ragweed [2, 17]: 85 | Plant response rating, Ragweed [2, 23]: 70 | Plant response rating, Ragweed [2, 18]: 80 | Plant response rating, Ragweed [2, 19]: 65 | Plant response rating, Ragweed [2, 20]: 30 | Plant response rating, Ragweed [2, 22]: 98 | Plant response rating, Crabgrass, Large [3, 24]: 35 | Plant response rating, Crabgrass, Large [3, 25]: 30 | Plant response rating, Crabgrass, Large [3, 26]: 35 | Plant response rating, Crabgrass, Large [3, 27]: 30 | Plant response rating, Field Bindweed [4, 15]: 85 | Plant response rating, Field Bindweed [4, 16]: 65 | Plant response rating, Field Bindweed [4, 17]: 90 | Plant response rating, Field Bindweed [4, 18]: 95 | Plant response rating, Field Bindweed [4, 19]: 75 | Plant response rating, Field Bindweed [4, 20]: 35 | Plant response rating, Field Bindweed [4, 21]: 85 | Plant response rating, Field Bindweed [4, 22]: 95 | Plant response rating, Barnyardgrass [5, 15]: 50 | Plant response rating, Barnyardgrass [5, 16]: 0 | Plant response rating, Barnyardgrass [5, 17]: 60 | Plant response rating, Barnyardgrass [5, 18]: 80 | Plant response rating, Barnyardgrass [5, 19]: 30 | Plant response rating, Barnyardgrass [5, 20]: 0 | Plant response rating, Barnyardgrass [5, 21]: 10 | Plant response rating, Barnyardgrass [5, 22]: 30 | Plant response rating, Soybean (soybean (Glycine max); [15]): 20 | Plant response rating, Soybean (soybean (Glycine max); [16]): 0 | Plant response rating, Soybean (soybean (Glycine max); [17]): 40 | Plant response rating, Soybean (soybean (Glycine max); [23]): 20 | Plant response rating, Soybean (soybean (Glycine max); [18]): 30 | Plant response rating, Soybean (soybean (Glycine max); [19]): 20 | Plant response rating, Soybean (soybean (Glycine max); [20]): 0 | Plant response rating, Pigweed, Palmer [6, 15]: 35 | Plant response rating, Pigweed, Palmer [6, 16]: 0 | Plant response rating, Pigweed, Palmer [6, 17]: 55 | Plant response rating, Pigweed, Palmer [6, 23]: 5 | Plant response rating, Pigweed, Palmer [6, 18]: 70 | Plant response rating, Pigweed, Palmer [6, 19]: 40 | Plant response rating, Pigweed, Palmer [6, 20]: 0 | Plant response rating, Pigweed, Palmer [6, 22]: 70 | Plant response rating, Morningglory [7, 24]: 75 | Plant response rating, Morningglory [7, 28]: 90 | Plant response rating, Morningglory [7, 25]: 20 | Plant response rating, Morningglory [7, 27]: 95 | Plant response rating, Goosegrass [8, 24]: 10 | Plant response rating, Goosegrass [8, 25]: 20 | Plant response rating, Goosegrass [8, 26]: 50 | Plant response rating, Goosegrass [8, 27]: 85 | Plant response rating, Foxtail, Giant [9, 24]: 20 | Plant response rating, Foxtail, Giant [9, 25]: 5 | Plant response rating, Foxtail, Giant [9, 26]: 75 | Plant response rating, Foxtail, Giant [9, 27]: 90 | Plant response rating, Arrowleaf Sida [10, 15]: 60 | Plant response rating, Arrowleaf Sida [10, 16]: 70 | Plant response rating, Arrowleaf Sida [10, 17]: 70 | Plant response rating, Arrowleaf Sida [10, 18]: 80 | Plant response rating, Arrowleaf Sida [10, 19]: 40 | Plant response rating, Arrowleaf Sida [10, 20]: 0 | Plant response rating, Arrowleaf Sida [10, 21]: 85 | Plant response rating, Arrowleaf Sida [10, 22]: 95 | Plant response rating, Johnsongrass [11, 25]: 0 | Plant response rating, Johnsongrass [11, 27]: 0 | Plant response rating, Panicum, Fall [12, 15]: 15 | Plant response rating, Panicum, Fall [12, 16]: 35 | Plant response rating, Panicum, Fall [12, 17]: 30 | Plant response rating, Panicum, Fall [12, 23]: 65 | Plant response rating, Panicum, Fall [12, 18]: 50 | Plant response rating, Panicum, Fall [12, 19]: 0 | Plant response rating, Panicum, Fall [12, 20]: 0 | Plant response rating, Panicum, Fall [12, 22]: 98 | Plant response rating, Surinam Grass [13, 24]: 65 | Plant response rating, Surinam Grass [13, 28]: 85 | Plant response rating, Surinam Grass [13, 25]: 10 | Plant response rating, Surinam Grass [13, 27]: 90 | Plant response rating, Horseweed [14, 15]: 80 | Plant response rating, Horseweed [14, 16]: 100 | Plant response rating, Horseweed [14, 17]: 70 | Plant response rating, Horseweed [14, 18]: 85 | Plant response rating, Horseweed [14, 19]: 70 | Plant response rating, Horseweed [14, 20]: 100 | Plant response rating, Horseweed [14, 21]: 100 | Plant response rating, Horseweed [14, 22]: 100

CC(=O)Oc1c(C)nn(C)c(=O)c1-c1c(C)cc(C)c2ccccc12 [Compound 99]
Plant response rating, Crabgrass, Brazil [1, 15]: 10 | Plant response rating, Crabgrass, Brazil [1, 17]: 20 | Plant response rating, Crabgrass, Brazil [1, 29]: 5 | Plant response rating, Crabgrass, Brazil [1, 19]: 10 | Plant response rating, Ragweed [2, 15]: 80 | Plant response rating, Ragweed [2, 17]: 90 | Plant response rating, Ragweed [2, 29]: 50 | Plant response rating, Ragweed [2, 19]: 75 | Plant response rating, Field Bindweed [4, 15]: 70 | Plant response rating, Field Bindweed [4, 17]: 80 | Plant response rating, Field Bindweed [4, 29]: 50 | Plant response rating, Field Bindweed [4, 19]: 60 | Plant response rating, Barnyardgrass [5, 15]: 40 | Plant response rating, Barnyardgrass [5, 17]: 50 | Plant response rating, Barnyardgrass [5, 29]: 40 | Plant response rating, Barnyardgrass [5, 19]: 30 | Plant response rating, Soybean (soybean (Glycine max); [17]): 30 | Plant response rating, Soybean (soybean (Glycine max); [29]): 0 | Plant response rating, Soybean (soybean (Glycine max); [19]): 0 | Plant response rating, Pigweed, Palmer [6, 15]: 30 | Plant response rating, Pigweed, Palmer [6, 17]: 50 | Plant response rating, Pigweed, Palmer [6, 29]: 5 | Plant response rating, Pigweed, Palmer [6, 19]: 10 | Plant response rating, Arrowleaf Sida [10, 15]: 50 | Plant response rating, Arrowleaf Sida [10, 17]: 60 | Plant response rating, Arrowleaf Sida [10, 29]: 10 | Plant response rating, Arrowleaf Sida [10, 19]: 30 | Plant response rating, Panicum, Fall [12, 15]: 50 | Plant response rating, Panicum, Fall [12, 17]: 70 | Plant response rating, Panicum, Fall [12, 29]: 20 | Plant response rating, Panicum, Fall [12, 19]: 30 | Plant response rating, Horseweed [14, 15]: 60 | Plant response rating, Horseweed [14, 17]: 75 | Plant response rating, Horseweed [14, 29]: 40 | Plant response rating, Horseweed [14, 19]: 50

Cc1nn(C)c(=O)c(-c2cccc3ccc(Br)cc23)c1O [Compound 126]
Plant response rating, Crabgrass, Brazil [1, 15]: 25 | Plant response rating, Crabgrass, Brazil [1, 17]: 40 | Plant response rating, Crabgrass, Brazil [1, 18]: 50 | Plant response rating, Crabgrass, Brazil [1, 19]: 10 | Plant response rating, Ragweed [2, 15]: 80 | Plant response rating, Ragweed [2, 17]: 100 | Plant response rating, Ragweed [2, 18]: 100 | Plant response rating, Ragweed [2, 19]: 70 | Plant response rating, Field Bindweed [4, 15]: 90 | Plant response rating, Field Bindweed [4, 17]: 95 | Plant response rating, Field Bindweed [4, 18]: 100 | Plant response rating, Field Bindweed [4, 19]: 85 | Plant response rating, Barnyardgrass [5, 15]: 50 | Plant response rating, Barnyardgrass [5, 17]: 40 | Plant response rating, Barnyardgrass [5, 18]: 30 | Plant response rating, Barnyardgrass [5, 19]: 40 | Plant response rating, Soybean (soybean (Glycine max); [17]): 40 | Plant response rating, Soybean (soybean (Glycine max); [18]): 30 | Plant response rating, Soybean (soybean (Glycine max); [19]): 10 | Plant response rating, Pigweed, Palmer [6, 15]: 50 | Plant response rating, Pigweed, Palmer [6, 17]: 50 | Plant response rating, Pigweed, Palmer [6, 18]: 80 | Plant response rating, Pigweed, Palmer [6, 19]: 40 | Plant response rating, Arrowleaf Sida [10, 15]: 80 | Plant response rating, Arrowleaf Sida [10, 17]: 100 | Plant response rating, Arrowleaf Sida [10, 18]: 85 | Plant response rating, Arrowleaf Sida [10, 19]: 75 | Plant response rating, Panicum, Fall [12, 15]: 35 | Plant response rating, Panicum, Fall [12, 17]: 30 | Plant response rating, Panicum, Fall [12, 18]: 35 | Plant response rating, Panicum, Fall [12, 19]: 10 | Plant response rating, Horseweed [14, 15]: 75 | Plant response rating, Horseweed [14, 17]: 85 | Plant response rating, Horseweed [14, 18]: 80 | Plant response rating, Horseweed [14, 19]: 70
